Some test systems named below: ACHN; NCI/ADR-RES; M14; MDA-MB-435; BT-549; MDA-MB-231; COLO 205; Malme-3M; U-251; SF-295; EKVX; A498; SNB-75; OVCAR-3; SF-268; HT-29; UACC-62; IGROV-1; HL-60; HOP-92.
Experiment in all cases: inhibition of tumour cell growth, NCI panel, 48 h

Each structure is given as a SMILES string.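 In this assay, cells in 96-well plates receive the compound at five concentrations for 48 hours. Endpoints are linearly interpolated between the surrounding concentrations. GI50 is the concentration that inhibits growth by half.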 Activity calls are given as the source filed them. Cut-off read from the data, not from the text of the source: active = GI50 up to about 1.1 µM and inactive = higher. Bounds are passed on as bounds.

These results are taken from ChEMBL document CHEMBL1201862, “PubChem BioAssay data set” (2004).

`O=[N+]([O-])C(/C(Cl)=C(/Cl)N1CCOCC1)=C1\NCCO1`: the GI50 with ACHN, in the test with NCI/ADR-RES, with M14, in the test on MDA-MB-435, with BT-549 and with MDA-MB-231 was > 100 µM (inactive) each time. Moreover, the GI50 with COLO 205, with Malme-3M, in the test with U-251, in the test on SF-295, in the test with EKVX and with A498 was > 100 µM (inactive) each time. For the same compound, the GI50 with SNB-75, with OVCAR-3, in the test with SF-268, in the test with HT-29 and with UACC-62 was > 100 µM (inactive) each time.

Regarding `CCOC(=O)c1ccc(C(=O)OCC)n1-c1cc2cc(c1)CSCc1cc(cc(-n3c(C(=O)OCC)ccc3C(=O)OCC)c1)CSC2`, the GI50 with ACHN, with NCI/ADR-RES, with IGROV-1, with M14, with MDA-MB-435 and with BT-549 was > 10 µM (inactive) each time. Further, the GI50 with MDA-MB-231, in the test on COLO 205, in the test with Malme-3M, in the test with U-251, in the test on SF-295 and in the test with EKVX was > 10 µM (inactive) in each case. Besides, the GI50 in the test with SNB-75, with OVCAR-3, with SF-268, in the test with HT-29, in the test on HL-60 and in the test with HOP-92 was > 10 µM (inactive) in each case. The GI50 in the test on UACC-62 is > 10 µM (inactive).

With `C[C@]12CC[C@H](O)C=C1CC[C@@H]1[C@@H]2CC[C@]2(C)C(=N/O)/C(=C/c3ccncc3)C[C@@H]12`, the GI50 in the test with ACHN is 8.43 µM (inactive); in the test with NCI/ADR-RES, 17.5 µM (inactive); in the test with IGROV-1, 14.8 µM (inactive); in the test with M14, 5.7 µM (inactive); with MDA-MB-435, 11.1 µM (inactive); in the test on BT-549, 20 µM (inactive). Further, the GI50 is 11.1 µM (inactive) in the test with MDA-MB-231; 11.7 µM (inactive) in the test on COLO 205; 17.5 µM (inactive) in the test with Malme-3M; 6.64 µM (inactive) in the test with U-251; 12.2 µM (inactive) in the test on SF-295; 16.4 µM (inactive) in the test with EKVX. The GI50 with SNB-75 was 14.4 µM (inactive); in the test on OVCAR-3 it was 5.53 µM (inactive); in the test with SF-268, 15.2 µM (inactive); in the test on HT-29 it was 4.04 µM (inactive); with HL-60, < 0.01 µM (active); in the test with HOP-92, 7.48 µM (inactive). Also, the GI50 with UACC-62 is 5.98 µM (inactive).

As for `N#Cc1c(N2CCN(c3ccc([N+](=O)[O-])cc3)CC2)[n+]([O-])c2ccc(-c3ccc([N+](=O)[O-])cc3)cc2[n+]1[O-]`, the GI50 in the test on ACHN is > 49 µM (inactive); in the test on NCI/ADR-RES, 9.08 µM (inactive); in the test on IGROV-1 it was 1.69 µM (inactive); in the test with M14, 19.2 µM (inactive); with MDA-MB-435, 39.6 µM (inactive); in the test on BT-549 it was > 100 µM (inactive). In addition, the GI50 in the test on MDA-MB-231 is 22.5 µM (inactive); in the test on COLO 205, 17.9 µM (inactive); in the test with Malme-3M, > 42 µM (inactive); in the test with U-251 it was 1.25 µM (inactive); in the test on SF-295, 8.51 µM (inactive); in the test with EKVX it was 7.28 µM (inactive). The GI50 was > 100 µM (inactive) in the test on A498; > 26.9 µM (inactive) in the test on SNB-75; > 19.8 µM (inactive) with OVCAR-3; > 100 µM (inactive) in the test with SF-268; > 67.6 µM (inactive) in the test on HT-29; 18 µM (inactive) in the test with UACC-62.
